Source: patent publication US9073876B2, “Flap modulators” (JANSSEN PHARMACEUTICA NV, priority 2013, dated 2015)

These compounds were tested against human FLAP (Homo sapiens (Human), UniProt P20292) (assay: FLAP binding assay (HTRF)). Conditions: human FLAP-containing membranes, HTRF format; average of two assay plates, duplicates; read-out: FLAP Binding wild type HTRF Ki.
Experimental: (§1) The ability of the compounds of the present invention to treat a FLAP-mediated disease and/or disorder, or associated symptoms or complications thereof, was determined using the following procedures. Binding assay data represent the average value obtained from two different assay plates, with samples run in duplicate on each plate. Human whole blood assay data represent a single replicate on an assay plate using whole blood from at least one healthy donor.
Data are expressed as a HTRF ratio.

Sequence of human FLAP (P20292 whole entry): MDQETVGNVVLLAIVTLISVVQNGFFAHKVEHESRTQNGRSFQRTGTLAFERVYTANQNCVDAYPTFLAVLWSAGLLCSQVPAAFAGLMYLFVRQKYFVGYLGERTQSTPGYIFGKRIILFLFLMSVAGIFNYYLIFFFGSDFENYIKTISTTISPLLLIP

Row | Compound | Ki [nM]
1 | 6-cyclobutyl-2-fluoro-3-(5H-pyrrolo[2,3-b]pyrazin-2-yl)phenol [Example 176] | 100
2 | Nc1cnc(-c2ccc(C3CCC3)c(OCC(O)Cn3cnccc3=O)c2F)cn1 (racemic) [Example 52, racemic 3-(3-(3-(5-Aminopyrazin-2-yl)-6-cyclobutyl-2-fluorophenoxy)-2-hydroxypropyl)pyrimidin-4(3H)-one] | 366
3 | Nc1cnc(-c2ccc(C3CCC3)c(OCC(O)Cn3ncccc3=O)c2F)cn1 (racemic) [Example 53, racemic 2-(3-(3-(5-Aminopyrazin-2-yl)-6-cyclobutyl-2-fluorophenoxy)-2-hydroxypropyl)pyridazin-3(2H)-one] | 138
4 | Nc1cnc(-c2ccc(C3CCC3)c(OCC(O)Cn3ccncc3=O)c2F)cn1 (racemic) [Example 54, racemic 1-(3-(3-(5-Aminopyrazin-2-yl)-6-cyclobutyl-2-fluorophenoxy)-2-hydroxypropyl)pyrazin-2(1H)-one] | 296
5 | Nc1cnc(-c2ccc(C3CCC3)c(OCC(O)CNc3cncnc3)c2F)cn1 (racemic) [Example 55, racemic 1-(3-(5-Aminopyrazin-2-yl)-6-cyclobutyl-2-fluorophenoxy)-3-(pyrimidin-5-ylamino)propan-2-ol] | 152
6 | Nc1cnc(-c2ccc(C3CCC3)c(OCC(O)CNc3cnccn3)c2F)cn1 (racemic) [Example 57, racemic 1-(3-(5-Aminopyrazin-2-yl)-6-cyclobutyl-2-fluorophenoxy)-3-(pyrazin-2-ylamino)propan-2-ol] | 36

The compounds below were run on leukotriene pathway in human whole blood (LTB4 levels) (assay: Human whole blood assay (LTB4)). Conditions: human whole blood diluted 1:1 in RPMI, stimulated with calcium ionophore A23187; single replicate.
Format: cell-based
Experimental: as §1
An in vitro cellular assay was performed using human whole blood collected in heparin-containing tubes, which was used to test the ability of compounds to modulate the leukotriene pathway in human whole blood. The blood was diluted 1:1 in RPMI medium, pre-incubated for 15 min at 37° Celsius with test compounds at various concentrations, and then stimulated with calcium ionophore, A23187 (7 μg/mL), for 30 min at 37° Celsius. The samples were then centrifuged and plasma was removed. The plasma was diluted in assay buffer and LTB4 levels were measured using a commercial kit (Enzo Life Sciences). The concentration of each compound that was required for half-maximal inhibition (modulation) of recombinant enzyme activity (IC50) was calculated by a 4-parameter equation using the program GraphPad Prism (GraphPad software).

Row | Compound | IC50 [nM]
7 | 2-[3-(Benzyloxy)-4-cyclobutyl-2- fluorophenyl]-5H-pyrrolo[2,3-b]pyrazine [Example 177] | 771
8 | 6-cyclobutyl-2-fluoro-3-(5H-pyrrolo[2,3-b]pyrazin-2-yl)phenol [Example 176] | 892
9 | Nc1cnc(-c2ccc(C3CCC3)c(OCC(O)Cn3cnccc3=O)c2F)cn1 (racemic) [Example 52, racemic 3-(3-(3-(5-Aminopyrazin-2-yl)-6-cyclobutyl-2-fluorophenoxy)-2-hydroxypropyl)pyrimidin-4(3H)-one] | 680
10 | Nc1cnc(-c2ccc(C3CCC3)c(OCC(O)Cn3ncccc3=O)c2F)cn1 (racemic) [Example 53, racemic 2-(3-(3-(5-Aminopyrazin-2-yl)-6-cyclobutyl-2-fluorophenoxy)-2-hydroxypropyl)pyridazin-3(2H)-one] | 645
11 | Nc1cnc(-c2ccc(C3CCC3)c(OCC(O)Cn3ccncc3=O)c2F)cn1 (racemic) [Example 54, racemic 1-(3-(3-(5-Aminopyrazin-2-yl)-6-cyclobutyl-2-fluorophenoxy)-2-hydroxypropyl)pyrazin-2(1H)-one] | 909
12 | Nc1cnc(-c2ccc(C3CCC3)c(OCC(O)CNc3cncnc3)c2F)cn1 (racemic) [Example 55, racemic 1-(3-(5-Aminopyrazin-2-yl)-6-cyclobutyl-2-fluorophenoxy)-3-(pyrimidin-5-ylamino)propan-2-ol] | 555
13 | Nc1cnc(-c2ccc(C3CCC3)c(OCC(O)CNc3ncccn3)c2F)cn1 (racemic) [Example 56, racemic 1-(3-(5-Aminopyrazin-2-yl)-6-cyclobutyl-2-fluorophenoxy)-3-(pyrimidin-2-ylamino)propan-2-ol] | 644
14 | Nc1cnc(-c2ccc(C3CCC3)c(OCC(O)CNc3cnccn3)c2F)cn1 (racemic) [Example 57, racemic 1-(3-(5-Aminopyrazin-2-yl)-6-cyclobutyl-2-fluorophenoxy)-3-(pyrazin-2-ylamino)propan-2-ol] | 345
15 | Nc1cnc(-c2ccc(C3CCC3)c(OCC(O)Cn3cccn3)c2F)cn1 (racemic) [Example 60, racemic 1-(3-(5-Aminopyrazin-2-yl)-6-cyclobutyl-2-fluorophenoxy)-3-(1H-pyrazol-1-yl)propan-2-ol] | 732
16 | N#Cc1cnn(CC(O)COc2c(C3CCC3)ccc(-c3cnc(N)cn3)c2F)c1N (racemic) [Example 65, racemic 5-Amino-1-(3-(3-(5-aminopyrazin-2-yl)-6-cyclobutyl-2-fluorophenoxy)-2-hydroxypropyl)-1H-pyrazole-4-carbonitrile] | 107
17 | Nc1cnc(-c2ccc(C3CCC3)c(OCC(O)CNc3ccn[nH]3)c2F)cn1 (racemic) [Example 67, racemic 1-((1H-Pyrazol-5-yl)amino)-3-(3-(5-aminopyrazin-2-yl)-6-cyclobutyl-2-fluorophenoxy)propan-2-ol] | 727
18 | CS(=O)(=O)c1cccc(COc2c(C3CCC3)ccc(-c3cnc(N)cn3)c2F)c1 [Example 6, 5-(4-Cyclobutyl-2-fluoro-3-{[3-(methylsulfonyl)benzyl]oxy}phenyl)-pyrazin-2-amine] | 1220
19 | Nc1cnc(-c2ccc(C3CCC3)c(OCc3ccc(F)c(F)c3)c2F)cn1 [Example 33, 5-{4-Cyclobutyl-3-[(3,4-difluorobenzyl)oxy]-2-fluorophenyl}pyrazin-2-amine] | 1410
20 | Nc1cnc(-c2ccc(C3CCC3)c(OCc3cc(Cl)ccc3Cl)c2F)cn1 [Example 38, 5-{4-Cyclobutyl-3-[(2,5-dichlorobenzyl)oxy]-2-fluorophenyl}pyrazin-2-amine] | 736
21 | Nc1cnc(-c2ccc(C3CCC3)c(OCc3nc(C4CC4)no3)c2F)cn1 [Example 48, 5-{4-Cyclobutyl-3-[(3-cyclopropyl-1,2,4-oxadiazol-5-yl)methoxy]-2-fluorophenyl}pyrazin-2-amine] | 175
22 | CC(C)(C)OC(=O)COc1c(C2CCC2)ccc(-c2cnc(N)cn2)c1F [Example 49, tert-Butyl [3-(5-aminopyrazin-2-yl)-6-cyclobutyl-2-fluorophenoxy]acetate] | 1150
23 | Cc1nc(COc2c(C3CCC3)ccc(-c3cnc(N)cn3)c2F)no1 [Example 70, 5-{4-Cyclobutyl-2-fluoro-3-[(5-methyl-1,2,4-oxadiazol-3-yl)methoxy]phenyl}pyrazin-2-amine] | 413
24 | CCOC(=O)c1ccc(COc2c(C3CCC3)ccc(-c3cnc(N)cn3)c2F)o1 [Example 73, Ethyl 5-{[3-(5-aminopyrazin-2-yl)-6-cyclobutyl-2-fluorophenoxy]methyl}furan-2-carboxylate] | 1020

Row | Compound | IC50 [nM]
25 | Nc1cnc(-c2ccc(C3CCC3)c(OCc3cc(S(F)(F)(F)(F)F)ccc3F)c2F)cn1 [Example 77, 5-(4-Cyclobutyl-2-fluoro-3-{[2-fluoro-5-(pentafluoro-lambda~6~- sulfanyl)benzyl]oxy}phenyl)pyrazin-2-amine] | 1380
26 | Nc1cnc(-c2ccc(C3CCC3)c(OCc3ccc(C(=O)O)o3)c2F)cn1 [Example 85, 5-{[3-(5-Aminopyrazin-2-yl)-6-cyclobutyl-2-fluorophenoxy]methyl}furan-2-carboxylic acid] | 10000
27 | CC(C)c1ccnc(Oc2c(C3CCC3)ccc(-c3cnc(N)cn3)c2F)n1 [Example 90, 5-(4-Cyclobutyl-2-fluoro-3-{[4-(1-methylethyl)pyrimidin-2-yl]oxy}phenyl)pyrazin-2-amine] | 53.8
28 | N#Cc1ccnc(Oc2c(C3CCC3)ccc(-c3cnc(N)cn3)c2F)n1 [Example 92, 2-[3-(5-Aminopyrazin-2-yl)-6-cyclobutyl-2-fluorophenoxy]pyrimidine-4-carbonitrile] | 6660
29 | N#Cc1ccc(Oc2c(C3CCC3)ccc(-c3cnc(N)cn3)c2F)nc1 [Example 114, 6-[3-(5-Aminopyrazin-2-yl)-6-cyclobutyl-2-fluorophenoxy]pyridine-3-carbonitrile] | 375
30 | CS(=O)(=O)c1ccc(Oc2c(C3CCC3)ccc(-c3cnc(N)cn3)c2F)cc1 [Example 116, 5-{4-Cyclobutyl-2-fluoro-3-[4-(methylsulfonyl)phenoxy]phenyl}pyrazin-2-amine] | 503
31 | CC(C)c1nccc(Oc2c(C3CCC3)ccc(-c3cnc(N)cn3)c2F)n1 [Example 135, 5-(4-Cyclobutyl-2-fluoro-3-{[2-(1-methylethyl)pyrimidin-4-yl]oxy}phenyl)pyrazin-2-amine] | 12.4
32 | NC(=O)c1ccc(Oc2c(C3CCC3)ccc(-c3cnc(N)cn3)c2F)cc1 [Example 155, 4-[3-(5-Aminopyrazin-2-yl)-6-cyclobutyl-2-fluorophenoxy]benzamide] | 170
33 | COc1c(C2CCC2)ccc(-c2cnc3c(c2)CCN3)c1F [Example 198, 5-(4-cyclobutyl-2-fluoro-3-methoxyphenyl)-2,3-dihydro-1H-pyrrolo[2,3-b]pyridine] | 2370
34 | CC(C)(C)c1ccc(-c2cnc(N)cn2)c(F)c1Oc1cc(N)ncn1 [Example 202, 6-[3-(5-Aminopyrazin-2-yl)-6-tert-butyl-2-fluorophenoxy]pyrimidin-4-amine] | 80.5
35 | N#Cc1nc(-c2ccc(C3CCC3)c(O)c2F)cnc1N [Example 222, 3-amino-6-(4-cyclobutyl-2-fluoro-3-hydroxyphenyl)pyrazine-2-carbonitrile] | 3480
36 | COc1cc(Oc2c(C3CCC3)ccc(-c3cnc4[nH]ccc4c3)c2F)ncn1 [Example 228, 5-(4-cyclobutyl-2-fluoro-3-((6-methoxypyrimidin-4-yl)oxy)phenyl)-1H-pyrrolo[2,3-b]pyridine] | 480
37 | CC(C)(C)OC(=O)N1CCC(COc2c(C3CCC3)ccc(-c3cnc(N)cn3)c2F)C1 (stereo not drawn) [Example 247, tert-butyl 3-((3-(5-aminopyrazin-2-yl)-6-cyclobutyl-2-fluoro-phenoxy)methyl)pyrrolidine-1-carboxylate] | 417
38 | Nc1cnc(-c2ccc(C3CCC3)c(Oc3cnc4cc(F)c(F)cc4n3)c2F)cn1 [Example 271, 5-{4-Cyclobutyl-3-[(6,7-difluoroquinoxalin-2-yl)oxy]-2-fluorophenyl}pyrazin-2-amine] | 85.3
39 | COC(=O)c1ccc2oc(COc3c(C4CCC4)ccc(-c4cnc(N)cn4)c3F)nc2c1 [Example 274, Methyl 2-{[3-(5-aminopyrazin-2-yl)-6-cyclobutyl-2-fluorophenoxy]methyl}-1,3-benzoxazole-5-carboxylate] | 160
40 | COC(=O)c1ccc(O)c(NC(=O)COc2c(C3CCC3)ccc(-c3cnc(N)cn3)c2F)c1 [Example 275, Methyl 3-({[3-(5-aminopyrazin-2-yl)-6-cyclobutyl-2-fluorophenoxy]acetyl}amino)-4-hydroxybenzoate] | 1960
41 | Nc1cnc(-c2ccc(C3CCCCC3)c(Oc3ncccn3)c2F)cn1 [Example 320, 5-(4-Cyclohexyl-2-fluoro-3-(pyrimidin-2-yloxy)phenyl)pyrazin-2-amine] | 167
42 | Nc1cnc(-c2ccc(C3CCC3)c(Oc3nc4ncccc4s3)c2F)cn1 [Example 330, 5-(4-Cyclobutyl-2-fluoro-3-(thiazolo[4,5-b]pyridin-2-yloxy)phenyl)pyrazin-2-amine] | > 1000
